From US20240335431A1, “1-H-PYRROLO[2,3-c]PYRIDINE COMPOUNDS” (Acerta Pharma B.V., priority 2023, published 2024)

Tests used:
MV4;11 cells = experiment: Proliferation assay, MV4;11 (CellTiter-Glo, 7 days); assay type: cell-based, human; conditions: Homo sapiens, MV4-11, 168 h, read-out: MV-4-11 IC50
In short: (§1)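 Cells seeded at 125 (MOLM-13), 300 (MV4;11), 75 (OCI-AML3) or 200 (HEL) per well were exposed to 3.16-fold compound dilutions (0.1% DMSO) for 7 days at 37° C. Viability by CellTiter-Glo luminescence, normalized to DMSO (100%) and day-0 plate (0%); IC50 from one-site dose-response fit.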

HEL cells = experiment: Proliferation assay, HEL control cell line (CellTiter-Glo, 7 days); assay type: cell-based, human; conditions: Homo sapiens, HEL, 168 h
In short: as §1

hERG = hERG (Homo sapiens (Human), UniProt Q12809); experiment: hERG assay 2, QPatch II 48X, room temperature; assay type: cell-based; conditions: hERG DUO cell line, top 200 μM
Experimental: Experiments were performed on the QPatch II 48X (Sophion Biosciences) high throughput patch clamp platform at room temperature and used single hole Qplates. hERG DUO cell line (BSys) was used. The internal patch clamp solution was KF 60 mM, KCl 70 mM, HEPES 10 mM, EGTA 10 mM, and 5 mM Mg ATP (pH7.2). After sealing and whole cell access was gained the external solution (NaCl 140 mM, KCl 4 mM, HEPES 10 mM, CaCl2 2 mM, MgCl2 1 mM, glucose 5 mM (pH 7.4) was applied twice to establish stable baseline currents. An industry standard +40/−40 mV voltage protocol was applied every 15 seconds. All compounds were tested in a 6-point cumulative assay (final DMSO concentration 0.4-2% depending on stock concentration of compounds). Compounds were dispensed from initial 10 mM or 50 mM DMSO stocks after which DMSO dilutions were undertaken with a top concentration of 200 μM tested. Solvent controls were run in all experiments in line with the DMSO % required. Only wells that passed acceptance criteria for this platform were used in this analysis (500 MegaOhm seal resistance and current size >0.2 nA). Analysis was completed in Prism Graphpad to complete a composite IC50, by plotting % inhibition versus log compound concentration and using a log(inhibitor) vs. response—Variable slope.

muscarinic M2 receptor = muscarinic M2 receptor (Homo sapiens (Human), UniProt P08172); experiment: Muscarinic M2 receptor binding assay (assay 1); conditions: [3H]AF-DX 384 2 nM, Cheng Prusoff
In short: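 Membrane homogenates (60 μg protein) were incubated with 2 nM [3H]AF-DX 384 for 60 min at 22° C in Tris-HCl pH 7.4 with NaCl, KCl, MgCl2 and EDTA; 1 μM atropine defined nonspecific binding. Filtration and scintillation counting gave percent inhibition of specific binding, with Ki by Cheng-Prusoff.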

OCI-AML3 cells = experiment: Proliferation assay, OCI-AML3 (CellTiter-Glo, 7 days); assay type: cell-based, human; conditions: Homo sapiens, OCI-AML-3, 168 h
In short: as §1

Sequence of muscarinic M2 receptor (P08172 whole entry): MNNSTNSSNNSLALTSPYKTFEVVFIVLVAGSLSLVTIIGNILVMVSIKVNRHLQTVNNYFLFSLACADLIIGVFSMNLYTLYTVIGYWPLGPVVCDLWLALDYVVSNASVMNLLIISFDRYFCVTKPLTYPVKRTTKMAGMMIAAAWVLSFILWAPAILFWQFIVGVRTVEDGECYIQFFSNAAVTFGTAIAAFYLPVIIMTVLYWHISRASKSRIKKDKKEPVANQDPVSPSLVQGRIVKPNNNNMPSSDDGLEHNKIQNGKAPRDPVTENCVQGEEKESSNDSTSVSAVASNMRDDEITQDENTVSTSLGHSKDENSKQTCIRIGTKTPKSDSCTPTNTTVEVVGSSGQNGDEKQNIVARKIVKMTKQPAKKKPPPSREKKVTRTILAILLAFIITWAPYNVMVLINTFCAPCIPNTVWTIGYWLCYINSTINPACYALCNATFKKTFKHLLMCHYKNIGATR
Sequence of hERG (Q12809 whole entry): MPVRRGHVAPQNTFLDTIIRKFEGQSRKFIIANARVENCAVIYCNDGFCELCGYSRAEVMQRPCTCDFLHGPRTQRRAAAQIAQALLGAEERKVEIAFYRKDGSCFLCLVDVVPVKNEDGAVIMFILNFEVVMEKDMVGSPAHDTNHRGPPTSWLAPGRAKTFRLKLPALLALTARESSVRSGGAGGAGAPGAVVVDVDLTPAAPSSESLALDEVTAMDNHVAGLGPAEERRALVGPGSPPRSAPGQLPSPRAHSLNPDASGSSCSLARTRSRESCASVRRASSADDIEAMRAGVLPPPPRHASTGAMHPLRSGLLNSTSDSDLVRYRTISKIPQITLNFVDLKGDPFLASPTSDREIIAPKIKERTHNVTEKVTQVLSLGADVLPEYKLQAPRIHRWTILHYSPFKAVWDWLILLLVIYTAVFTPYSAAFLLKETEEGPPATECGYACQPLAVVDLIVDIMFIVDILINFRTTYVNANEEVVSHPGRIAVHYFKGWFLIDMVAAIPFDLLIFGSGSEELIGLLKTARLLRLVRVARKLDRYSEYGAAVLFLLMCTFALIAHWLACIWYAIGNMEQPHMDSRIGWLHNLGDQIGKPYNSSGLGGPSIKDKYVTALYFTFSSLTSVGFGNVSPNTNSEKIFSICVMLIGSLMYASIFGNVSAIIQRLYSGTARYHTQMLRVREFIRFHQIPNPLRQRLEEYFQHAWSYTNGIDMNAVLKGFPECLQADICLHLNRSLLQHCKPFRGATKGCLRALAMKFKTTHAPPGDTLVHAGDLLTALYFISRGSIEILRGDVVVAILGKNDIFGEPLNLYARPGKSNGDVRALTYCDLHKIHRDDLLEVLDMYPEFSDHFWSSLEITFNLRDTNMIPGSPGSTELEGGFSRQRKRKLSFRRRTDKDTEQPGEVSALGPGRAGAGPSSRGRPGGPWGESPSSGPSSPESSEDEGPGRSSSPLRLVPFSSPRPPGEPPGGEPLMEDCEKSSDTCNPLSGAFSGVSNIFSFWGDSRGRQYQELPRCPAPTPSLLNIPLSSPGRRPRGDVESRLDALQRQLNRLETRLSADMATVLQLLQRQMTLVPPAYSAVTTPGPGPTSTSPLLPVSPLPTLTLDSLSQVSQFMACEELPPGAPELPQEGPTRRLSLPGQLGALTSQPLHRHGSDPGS

| IC50 (MV4;11 cells) [nM] | Ki (muscarinic M2 receptor) [nM] | IC50 (OCI-AML3 cells) [nM] | Compound | IC50 (HEL cells) [nM] | IC50 (hERG) [nM] |
| --- | --- | --- | --- | --- | --- |
| 34 | 400 |  | CCN(C(=O)c1cc(F)ccc1-n1cc(C(=O)C2CCN(C(=O)[C@H]3NC[C@@H]4C[C@@H]43)CC2)c2ccncc21)C(C)C [Example 28, 2-(3-(1-((1S,2S,5R)-3-Azabicyclo[3.1.0]hexane-2-carbonyl)piperidine-4-carbonyl)-1H-pyrrolo[2,3-c]pyridin-1-yl)-N-ethyl-5-fluoro-N-isopropylbenzamide] | > 10000 | > 200000 |
| 32 | 100 |  | CCN(C(=O)c1cc(F)ccc1-n1cc(C(=O)C2CCN(C(=O)[C@H]3N[C@@H]4CC[C@H]3C4)CC2)c2ccncc21)C(C)C [Example 31, 2-(3-(1-((1R,3S,4S)-2-Azabicyclo[2.2.1]heptane-3-carbonyl)piperidine-4-carbonyl)-1H-pyrrolo[2,3-c]pyridin-1-yl)-N-ethyl-5-fluoro-N-isopropylbenzamide] | > 10000 | > 200000 |
| 43 | 1200 |  | CC(C)n1nccc1-c1cc(F)ccc1-n1cc(C(=O)C2CCN(C(=O)[C@H]3N[C@@H]4CC[C@H]3C4)CC2)c2ccncc21 [Example 36, (1-((1R,3S,4S)-2-Azabicyclo[2.2.1]heptane-3-carbonyl)piperidin-4-yl)(1-(4-fluoro-2-(1-isopropyl-1H-pyrazol-5-yl)phenyl)-1H-pyrrolo[2,3-c]pyridin-3-yl)methanone] | > 10000 | 36500 |
| 34 | 300 |  | CC(C)c1ncncc1-c1cc(F)ccc1-n1cc(C(=O)C2CCN(C(=O)[C@H]3N[C@@H]4CC[C@H]3C4)CC2)c2ccncc21 [Example 37, (1-((1R,3S,4S)-2-Azabicyclo[2.2.1]heptane-3-carbonyl)piperidin-4-yl)(1-(4-fluoro-2-(4-isopropylpyrimidin-5-yl)phenyl)-1H-pyrrolo[2,3-c]pyridin-3-yl)methanone] | > 10000 | > 200000 |
| 24 | 300 |  | CC(C)c1ncccc1-c1cc(F)ccc1-n1cc(C(=O)C2CCN(C(=O)[C@H]3N[C@@H]4CC[C@H]3C4)CC2)c2ccncc21 [Example 38, (1-((1R,3S,4S)-2-Azabicyclo[2.2.1]heptane-3-carbonyl)piperidin-4-yl)(1-(4-fluoro-2-(2-isopropylpyridin-3-yl)phenyl)-1H-pyrrolo[2,3-c]pyridin-3-yl)methanone] | > 10000 | 26000 |
| 65 | 2800 | 117 | CC(C)N(C(=O)c1cc(F)ccc1-n1cc(C(=O)C2CCN(C(=O)[C@H]3N[C@@H]4CC[C@H]3C4)CC2)c2c(F)cncc21)C(C)C.O=CO [Example 44, 2-(3-(1-((1R,3S,4S)-2-Azabicyclo[2.2.1]heptane-3-carbonyl)piperidine-4-carbonyl)-4-fluoro-1H-pyrrolo[2,3-c]pyridin-1-yl)-5-fluoro-N,N-diisopropylbenzamide 1·formic acid] | > 10000 |  |
| 37 | 7100 |  | CCN(C(=O)c1cc(F)ccc1-n1c(C)c(C(=O)C2CCN(C(=O)[C@H]3N[C@@H]4CC[C@H]3C4)CC2)c2ccncc21)C(C)C [Example 46, 2-(3-(1-((1R,3S,4S)-2-Azabicyclo[2.2.1]heptane-3-carbonyl)piperidine-4-carbonyl)-2-methyl-1H-pyrrolo[2,3-c]pyridin-1-yl)-N-ethyl-5-fluoro-N-isopropylbenzamide] | > 10000 | > 200000 |
| 40 | 3500 | 43 | Cc1c(C(=O)C2CCN(C(=O)[C@H]3NC[C@@H]4C[C@@H]43)CC2)c2ccncc2n1-c1ccc(F)cc1-c1cnccc1C(C)C [Example 54, (1-((1S,2S,5R)-3-Azabicyclo[3.1.0]hexane-2-carbonyl)piperidin-4-yl)(1-(4-fluoro-2-(4-isopropylpyridin-3-yl)phenyl)-2-methyl-1H-pyrrolo[2,3-c]pyridin-3-yl)methanone] | > 10000 |  |
